# Marks after values point to notes of the source that are not given here. Non-standard residues stand in square brackets, D forms with d. Residues, ends and D or L forms follow the SMILES beside them. d2Nal = N[C@H](Cc1ccc2ccccc2c1)C(=O)O; dNle = CCCC[C@@H](N)C(=O)O
# Columns and labels:
# [1] = test system: carbapenem-resistant Escherichia coli (CREC); type: cell-based; conditions: carbapenem-resistant (CREC)
# Procedure, shortened: (§1)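 Broth serial twofold dilution per CLSI standards, run 5 times in parallel, gave MIC values for the peptides against clinically common resistant strains.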
# [2] = test system: Methicillin-resistant Staphylococcus aureus (MRSA); type: cell-based; conditions: Methicillin-resistant
# Procedure, shortened: as §1
# [3] = test system: carbapenem-resistant Pseudomonas aeruginosa (CRPA); type: cell-based; conditions: carbapenem-resistant (CRPA)
# Procedure, shortened: as §1
# [4] = test system: carbapenem-resistant Klebsiella pneumoniae (CRKP); type: cell-based; conditions: carbapenem-resistant (CRKP)
# Procedure, shortened: as §1
# [5] = test system: vancomycin-resistant Enterococcus (VRE); type: cell-based
# Procedure, shortened: as §1
# [6] = test system: Shigella flexneri ATCC 12022; assay: MIC against clinically common bacterial strain; type: cell-based
# Procedure, shortened: (§2)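 Susceptibility testing used the CLSI-standard microdilution method with twofold serial dilutions of the antimicrobial peptides to give MIC values, replicated 5 times in parallel.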
# [7] = test system: Candida albicans ATCC MYA-2876; type: cell-based
# Procedure, shortened: as §2
# [8] = test system: Pseudomonas aeruginosa ATCC 27853; type: cell-based
# Procedure, shortened: as §2
# [9] = test system: Candida tropicalis ATCC 750; type: cell-based
# Procedure, shortened: as §2
# [10] = test system: Klebsiella pneumoniae ATCC 700603; type: cell-based
# Procedure, shortened: as §2
# [11] = test system: Corynebacterium ATCC 7715; type: cell-based
# Procedure, shortened: as §2
# [12] = test system: Trichophyton ATCC MYA-4438; type: cell-based
# Procedure, shortened: as §2
# Enterococcus ATCC 29212 = type: cell-based
# Procedure, shortened: as §2
# [13] = test system: Escherichia coli ATCC 25922; type: cell-based
# Procedure, shortened: as §2
# [14] = test system: Serratia marcescens ATCC 29021; type: cell-based
# Procedure, shortened: as §2
# Candida krusei ATCC 6258 = type: cell-based
# Procedure, shortened: as §2
# [15] = test system: Staphylococcus aureus (NRS 384); conditions: NRS 384, 3 h
# Method: Trypsin (250 U/mg, pH=8.0) and AMPs (LV-1 to LV-30) were mixed in a ratio of 1:10 (w/w) and added to a reaction buffer (0.2 M sodium phosphate, 1 mM CaCl2), pH 7.5), and then incubated at 37° C. for 3 h.
# [16] = test system: Escherichia coli ATCC 25922; assay: Oral formulations on mice with systemic bacterial infection; type: in vivo, ICR mice; conditions: three times a day for 7 days; for Number of mice that died on each day after infection: day 4 / Number of mice that died on each day after infection: day 5 / Number of mice that died on each day after infection: day 6 / Number of mice that died on each day after infection: day 7 / Number of mice that died on each day after infection: day 8 / Average survival times (Days): n = 10; for Average survival times (Days): observed for 14 d
# Procedure, shortened: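 Survival time and deaths were logged over a 14 d observation after oral gavage dosing (by body weight, thrice daily, 7 days, starting right after infection). Model: mixed-sex ICR mice, n=10 per group, intraperitoneal injection of E. coli ATCC 25922 suspension (0.2 mL, 1×10^7 CFU/mL).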
# [17] = test system: Pseudomonas aeruginosa ATCC 27853; assay: Injectable formulations on mice infected with peritonitis; type: in vivo, ICR mice; conditions: twice a day for 3 days; for Number of mice that died on each day after infection: day 1 / Number of mice that died on each day after infection: day 2 / Number of mice that died on each day after infection: day 3 / Number of mice that died on each day after infection: day 4 / Number of mice that died on each day after infection: day 5 / Average survival times (Days): n = 10; for Average survival times (Days): observed for 14 d
# Procedure, shortened: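 Survival readout: deaths and survival time tracked for 14 d. Treatment was tail-vein injection by body weight, twice a day for 3 consecutive days, starting right after intraperitoneal challenge with 0.2 mL of 1×10^9 CFU/mL P. aeruginosa ATCC 27853 in male and female ICR mice.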
smiles,measurement,setting,value
CCCC[C@@H](NC(=O)[C@@H](CCCCN)NC(=O)[C@@H](CCCNC(=N)N)NC(C)=O)C(=O)N[C@H](CCCC)C(=O)N[C@H](Cc1ccc2ccccc2c1)C(=O)N[C@H](CCCNC(=N)N)C(=O)N[C@H](CCCC)C(=O)N[C@H](CCCCN)C(=O)N[C@H](Cc1ccc2ccccc2c1)C(=O)N[C@H](CCCNC(=N)N)C(=O)N[C@H](CCCCN)C(N)=O [LV-12] (Ac-[dR][dK][dNle][dNle][d2Nal][dR][dNle][dK][d2Nal][dR][dK]-NH2),MIC CREC,[1],8 µg/mL
same,MIC MRSA,[2],8 µg/mL
same,MIC CRPA,[3],2 µg/mL
same,MIC CRKP,[4],4 µg/mL
same,MIC VRE,[5],4 µg/mL
same,MIC Shigella flexneri ATCC 12022,[6],4 µg/mL
same,MIC Candida albicans ATCC MYA-2876,[7],8 µg/mL
same,MIC Pseudomonas aeruginosa ATCC 27853,[8],1 µg/mL
same,MIC Candida tropicalis ATCC 750,[9],8 µg/mL
same,MIC Klebsiella pneumoniae ATCC 700603,[10],2 µg/mL
same,MIC Corynebacterium ATCC 7715,[11],2 µg/mL
same,MIC Trichophyton ATCC MYA-4438,[12],16 µg/mL
same,MIC Enterococcus ATCC 29212,Enterococcus ATCC 29212,4 µg/mL
same,MIC Escherichia coli ATCC 25922,[13],1 µg/mL
same,MIC Serratia marcescens ATCC 29021,[14],2 µg/mL
same,MIC Candida krusei ATCC 6258,Candida krusei ATCC 6258,4 µg/mL
same,Trypsin MIC,[15],1 µg/mL
same,Number of mice that died on each day after infection: day 4,[16]; 0.2 mg/kg gavage,1 Mouse
same,Number of mice that died on each day after infection: day 5,[16]; 0.2 mg/kg gavage,2 Mouse
same,Number of mice that died on each day after infection: day 6,[16]; 0.2 mg/kg gavage,2 Mouse
same,Number of mice that died on each day after infection: day 7,[16]; 0.2 mg/kg gavage,1 Mouse
same,Number of mice that died on each day after infection: day 8,[16]; 0.2 mg/kg gavage,0 Mouse
same,Average survival times (Days),[16]; 0.2 mg/kg gavage,8.9** Days
same,Number of mice that died on each day after infection: day 4,[16]; 1 mg/kg gavage,0 Mouse
same,Number of mice that died on each day after infection: day 5,[16]; 1 mg/kg gavage,1 Mouse
same,Number of mice that died on each day after infection: day 6,[16]; 1 mg/kg gavage,0 Mouse
same,Number of mice that died on each day after infection: day 7,[16]; 1 mg/kg gavage,2 Mouse
same,Number of mice that died on each day after infection: day 8,[16]; 1 mg/kg gavage,1 Mouse
same,Average survival times (Days),[16]; 1 mg/kg gavage,11.1**** Days
same,Number of mice that died on each day after infection: day 4,[16]; 5 mg/kg gavage,0 Mouse
same,Number of mice that died on each day after infection: day 5,[16]; 5 mg/kg gavage,2 Mouse
same,Number of mice that died on each day after infection: day 6,[16]; 5 mg/kg gavage,1 Mouse
same,Number of mice that died on each day after infection: day 7,[16]; 5 mg/kg gavage,1 Mouse
same,Number of mice that died on each day after infection: day 8,[16]; 5 mg/kg gavage,0 Mouse
same,Average survival times (Days),[16]; 5 mg/kg gavage,10.7*** Days
same,survival time of mice infected with Escherichia coli,"[16]; gavage, observed 14 d",superior to those of the Levofloxacin group
same,Number of mice that died on each day after infection: day 1,[17]; 0.2 mg/kg via tail vein,2 Mouse
same,Number of mice that died on each day after infection: day 2,[17]; 0.2 mg/kg via tail vein,1 Mouse
same,Number of mice that died on each day after infection: day 3,[17]; 0.2 mg/kg via tail vein,0 Mouse
same,Number of mice that died on each day after infection: day 4,[17]; 0.2 mg/kg via tail vein,2 Mouse
same,Number of mice that died on each day after infection: day 5,[17]; 0.2 mg/kg via tail vein,1 Mouse
same,Average survival times (Days),[17]; 0.2 mg/kg via tail vein,7.3** Days
same,Number of mice that died on each day after infection: day 1,[17]; 1 mg/kg via tail vein,0 Mouse
same,Number of mice that died on each day after infection: day 2,[17]; 1 mg/kg via tail vein,0 Mouse
same,Number of mice that died on each day after infection: day 3,[17]; 1 mg/kg via tail vein,2 Mouse
same,Number of mice that died on each day after infection: day 4,[17]; 1 mg/kg via tail vein,0 Mouse
same,Number of mice that died on each day after infection: day 5,[17]; 1 mg/kg via tail vein,1 Mouse
same,Average survival times (Days),[17]; 1 mg/kg via tail vein,10.9**** Days
same,Number of mice that died on each day after infection: day 1,[17]; 5 mg/kg via tail vein,0 Mouse
same,Number of mice that died on each day after infection: day 2,[17]; 5 mg/kg via tail vein,1 Mouse
same,Number of mice that died on each day after infection: day 3,[17]; 5 mg/kg via tail vein,2 Mouse
same,Number of mice that died on each day after infection: day 4,[17]; 5 mg/kg via tail vein,0 Mouse
same,Number of mice that died on each day after infection: day 5,[17]; 5 mg/kg via tail vein,1 Mouse
same,Average survival times (Days),[17]; 5 mg/kg via tail vein,9.7*** Days
same,survival time of mice infected with Pseudomonas aeruginosa,"[17]; tail vein, observed 14 d",superior to those of the Levofloxacin group

# Source: US20250304620A1, “ANTIMICROBIAL PEPTIDE AND APPLICATION THEREOF” (priority 2023, published 2025)
